Laboratory results reported in the supplement of paper PMC10307832.

How the values were obtained:
Experiment in all cases: relative viability (nuclei count vs DMSO), 5 days (fraction); higher = more cells survive
[1] = system: LCLC-97TM1
Procedure, shortened: (§1)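 Relative viability was taken as the ratio of nuclei in treated wells to nuclei in vehicle wells. Lung cancer cell lines in 1536-well plates received compounds by pin tool one day after seeding, either one drug alone or a fixed anchor-drug dose plus five library-drug doses (not always all listed) in √10 steps. Nuclei were counted on 4× images after 5 days of treatment, and values are medians of duplicate plates.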

[2] = system: HCC-15
Procedure, shortened: as §1

[3] = system: NCI-H1734
Procedure, shortened: as §1

[4] = system: ChaGo-K-1
Procedure, shortened: as §1

[5] = system: NCI-H2009
Procedure, shortened: as §1

[6] = system: NCI-H441
Procedure, shortened: as §1

[7] = system: NCI-H460
Procedure, shortened: as §1

[8] = system: COR-L23
Procedure, shortened: as §1

[9] = system: RERF-LC-KJ
Procedure, shortened: as §1

[10] = system: LOU-NH91
Procedure, shortened: as §1

[11] = system: NCI-H2023
Procedure, shortened: as §1

[12] = system: NCI-H2126
Procedure, shortened: as §1

[13] = system: 201T
Procedure, shortened: as §1

[14] = system: HCC-44
Procedure, shortened: as §1

[15] = system: NCI-H1993
Procedure, shortened: as §1

[16] = system: HCC-78
Procedure, shortened: as §1

[17] = system: A-427
Procedure, shortened: as §1

[18] = system: SW 1573
Procedure, shortened: as §1

[19] = system: HCC-366
Procedure, shortened: as §1

[20] = system: HARA
Procedure, shortened: as §1

[21] = system: NCI-H650
Procedure, shortened: as §1

[22] = system: NCI-H1650
Procedure, shortened: as §1

[23] = system: LCLC-103H
Procedure, shortened: as §1

In the case of `Cc1cnc(-c2cnc(NCCNc3ccc(C#N)cn3)nc2-c2ccc(Cl)cc2Cl)[nH]1` + N=C(N)NC(=N)NCCc1ccccc1 [Phenformin] (partner 250 µM), the relative viability ([1]; first compound 0.08 µM) is reported as 0.481, the relative viability ([1]; first compound 0.8 µM) is reported as 0.535 and the relative viability ([1]; first compound 2.53 µM) is reported as 0.462. The relative viability ([2]; first compound 0.08 µM) was 0.462, the relative viability ([2]; first compound 0.253 µM) was 0.415 and the relative viability ([2]; first compound 0.8 µM) was 0.471. For the same molecule, the relative viability ([2]; first compound 2.53 µM) was 0.412, the relative viability ([3]; first compound 0.08 µM) was 0.49 and the relative viability ([3]; first compound 0.253 µM) was 0.379. The relative viability ([3]; first compound 0.8 µM) was 0.391, the relative viability ([3]; first compound 2.53 µM) was 0.355 and the relative viability ([4]; first compound 0.08 µM) was 0.493. For the same molecule, the relative viability ([4]; first compound 0.253 µM) was 0.375, the relative viability ([4]; first compound 0.8 µM) was 0.44 and the relative viability ([4]; first compound 2.53 µM) was 0.413. It also gave a relative viability ([5]; first compound 0.08 µM) of 0.499, a relative viability ([5]; first compound 0.253 µM) of 0.442 and a relative viability ([5]; first compound 0.8 µM) of 0.489. It also gave a relative viability ([5]; first compound 2.53 µM) of 0.271, a relative viability ([6]; first compound 0.08 µM) of 0.841 and a relative viability ([6]; first compound 0.253 µM) of 0.756. The relative viability ([6]; first compound 0.8 µM) was 0.714, the relative viability ([6]; first compound 2.53 µM) was 0.864 and the relative viability ([7]; first compound 0.08 µM) was 0.551. The relative viability ([7]; first compound 0.253 µM) was 0.452, the relative viability ([7]; first compound 0.8 µM) was 0.513 and the relative viability ([7]; first compound 2.53 µM) was 0.41. For the same molecule, the relative viability ([8]; first compound 0.08 µM) was 0.493, the relative viability ([8]; first compound 0.253 µM) was 0.449 and the relative viability ([8]; first compound 2.53 µM) was 0.408. For the same molecule, the relative viability ([9]; first compound 0.08 µM) was 0.436, the relative viability ([9]; first compound 0.253 µM) was 0.445 and the relative viability ([9]; first compound 0.8 µM) was 0.426. For the same molecule, the relative viability ([9]; first compound 2.53 µM) was 0.354, the relative viability ([10]; first compound 0.08 µM) was 0.769 and the relative viability ([10]; first compound 0.253 µM) was 0.674. It also gave a relative viability ([10]; first compound 0.8 µM) of 0.756, a relative viability ([10]; first compound 2.53 µM) of 0.567 and a relative viability ([11]; first compound 0.08 µM) of 0.436. The relative viability ([11]; first compound 0.253 µM) was 0.413, the relative viability ([11]; first compound 0.8 µM) was 0.422 and the relative viability ([11]; first compound 2.53 µM) was 0.33. It also gave a relative viability ([12]; first compound 0.08 µM) of 0.526, a relative viability ([12]; first compound 0.253 µM) of 0.533 and a relative viability ([12]; first compound 0.8 µM) of 0.506. For the same molecule, the relative viability ([12]; first compound 2.53 µM) was 0.567, the relative viability ([13]; first compound 0.08 µM) was 0.469 and the relative viability ([13]; first compound 0.8 µM) was 0.397. It also gave a relative viability ([13]; first compound 2.53 µM) of 0.473, a relative viability ([14]; first compound 0.08 µM) of 0.209 and a relative viability ([14]; first compound 0.253 µM) of 0.192. For the same molecule, the relative viability ([14]; first compound 0.8 µM) was 0.182, the relative viability ([14]; first compound 2.53 µM) was 0.139 and the relative viability ([15]; first compound 0.08 µM) was 0.493. It also gave a relative viability ([15]; first compound 0.253 µM) of 0.477, a relative viability ([15]; first compound 0.8 µM) of 0.521 and a relative viability ([15]; first compound 2.53 µM) of 0.535. The relative viability ([16]; first compound 0.08 µM) was 0.804, the relative viability ([16]; first compound 0.253 µM) was 0.675 and the relative viability ([16]; first compound 0.8 µM) was 0.636. For the same molecule, the relative viability ([16]; first compound 2.53 µM) was 0.645, the relative viability ([17]; first compound 0.08 µM) was 0.307 and the relative viability ([17]; first compound 0.253 µM) was 0.327. For the same molecule, the relative viability ([17]; first compound 0.8 µM) was 0.378, the relative viability ([17]; first compound 2.53 µM) was 0.342 and the relative viability ([18]; first compound 0.08 µM) was 0.515. The relative viability ([18]; first compound 0.253 µM) was 0.334, the relative viability ([18]; first compound 0.8 µM) was 0.436 and the relative viability ([18]; first compound 2.53 µM) was 0.3. For the same molecule, the relative viability ([19]; first compound 0.08 µM) was 0.606, the relative viability ([19]; first compound 0.253 µM) was 0.455 and the relative viability ([19]; first compound 0.8 µM) was 0.557. For the same molecule, the relative viability ([19]; first compound 2.53 µM) was 0.507, the relative viability ([20]; first compound 0.08 µM) was 0.451 and the relative viability ([20]; first compound 0.253 µM) was 0.413. For the same molecule, the relative viability ([20]; first compound 0.8 µM) was 0.477, the relative viability ([20]; first compound 2.53 µM) was 0.412 and the relative viability ([21]; first compound 0.08 µM) was 0.468. It also gave a relative viability ([21]; first compound 0.253 µM) of 0.438, a relative viability ([21]; first compound 0.8 µM) of 0.489 and a relative viability ([21]; first compound 2.53 µM) of 0.417. It also gave a relative viability ([22]; first compound 0.08 µM) of 0.497, a relative viability ([22]; first compound 0.253 µM) of 0.428 and a relative viability ([22]; first compound 0.8 µM) of 0.384. The relative viability ([22]; first compound 2.53 µM) was 0.276, the relative viability ([23]; first compound 0.08 µM) was 0.273 and the relative viability ([23]; first compound 0.253 µM) was 0.342. For the same molecule, the relative viability ([23]; first compound 0.8 µM) was 0.31 and the relative viability ([23]; first compound 2.53 µM) was 0.3.
